Format in all cases: in vivo, rat
For assay [1], the system named is Male Sprague-Dawley rats. As to the kind of experiment: Porsolt swim test (forced swim stress test). An excerpt: Laboratory Animals: The use of animals for this study was approved by the University Committee on Animal Care at East Tennessee State University. All rats were ordered from Envigo, Inc. (Indianapolis, Ind., USA). Male Sprague-Dawley rats (225-250 g upon arrival) were used as subjects in the Porsolt swim test and were socially housed in groups of 2-3 per cage. Rats used as ‘intruders’ in the social defeat paradigm were individually housed and provided enrichment per the NIH Guidelines for the Care and Use of Animals. Intruder rats were male Sprague-Dawley rats (225-250 g). In addition, a total of 14 female Sprague-Dawley rats weighing 175-199 g upon arrival were obtained for the social defeat paradigm and these rats were socially housed for 6 days in the animal colony prior to fallopian tube ligature, performed as previously described. (Szebeni et al., 2016). Sixteen male Long-Evans hooded rats weighing 250-275 g upon arrival were used as ‘residents’ in the social defeat paradigm. A climate-controlled vivarium was utilized and animals were kept on a 12 h on/12 off light/dark cycle. Porsolt swim test: Different groups of animals were tested in the Porsolt swim test. Rats were treated using the same drug treatment regimen as with the SDS/CUS paradigm, except as noted in the combined drug treatments as noted in the Results. On the eighth day of drug treatment, all animals began behavioral testing in the Porsolt swim test, also known as the forced swim stress test. All animals were tested in black cylinders measuring 36 cm in diameter, and these cylinders were filled with water of 23-25° C. following procedures as reviewed previously (Bogdanova et al., 2013), consistent with the original procedure of Porsolt and coworkers (Porsolt et al., 1978). All animals were given a pre-swim exposure test on the first day of testing, 24 h before the swim test session the following day. On the first day of testing, animals were exposed to the water for 15 min, and on the second day were given a 5 min trial. The two dependent measures used for forced swim stress was the latency to first immobility episode (immobility lasting >5 s) and the total immobility time over the 5 min period, both recorded on the second day of testing. All movements of the animal were recorded by behavioral scanning software (ANY-maze, Stoelting Co., Wood Dale, Ill., USA). Drug administration: All drugs used in the study, 3-aminobenzamide (Product no. A0788; 3-AB), 5-AIQ hydrochloride (Product no. […] F132), were obtained from Sigma-Aldrich, Inc. (St. Louis, Mo., USA). Statistical analysis: A Grubb's test was used to remove statistical outliers from each dataset prior to analyses. Statistical analyses were otherwise performed as indicated using IBM SPSS Statistics (version 23.0) and data were graphed using GraphPad Prism (version 5.0b, GraphPad Software, La Jolla, Calif.). An independent sample t-test was used to analyze data generated when only two groups were analyzed. An analysis of variance (ANOVA) was used to test multiple group comparisons. For post hoc statistical comparisons, a Bonferroni-correction was applied (as noted) to limit Type I error in multiple post-hoc comparisons. For the combined drug treatment experiment, ANOVA was followed by a Dunnett's Multiple Comparison test that focused comparisons of drug treatment groups to the vehicle control group. All data are expressed as mean±standard error of the mean.

For assay [2], the system named is Male Sprague-Dawley rats. As to the kind of experiment: Sucrose preference in rats exposed to repeated social defeat stress plus chronic unpredictable stress. The note with it: 2 h prior to social defeat, vs stressed rats treated with vehicle. The method, then:
(§1) Social Defeat Stress (SDS): SDS was induced as described previously (Covington and Miczek, 2001; Szebeni et al., 2016). Briefly, Long-Evans hooded rats (‘residents’) were each mated with a female (ligated) rat for a 7-day period. On the eighth day and after removal of the female, an ‘intruder’ rat was placed into the cage for a 5 min period and dominance was established by the resident. Defeat was produced between 0900 and 1000 h daily for 10 consecutive days. Control rats not exposed to defeat were handled each day during this same time period.
Chronic unpredictable stress (CUS): CUS was performed after SDS on the same day, but at random times either during the day or evening as previously described (Bondi et al., 2008; Szebeni et al., 2016). Different stressors were randomly arranged and occurred at random times during the light or dark cycle of each day for 10 consecutive days. […]
Sucrose Preference: Sucrose preference was performed during the final three days of induction of social defeat stress (days 8-10), using a procedure based on that of D'Aquila et al. (1997). […] Amounts of sucrose consumed were calculated as percentages of the total amount of fluid consumed during the 2 h period on each of the 3 days of testing. […] The preference of sucrose over water was used as a measure of animal's sensitivity to reward and expressed as a percent. […]

The subject of assay [3] is Male Sprague-Dawley rats. As to the kind of experiment: Social interaction test in rats exposed to repeated social defeat stress plus chronic unpredictable stress. The method, then:
as §1
Chronic unpredictable stress (CUS): CUS was performed after SDS on the same day, but at random times either during the day or evening as previously described (Bondi et al., 2008; Szebeni et al., 2016). Different stressors were randomly arranged and occurred at random times during the light or dark cycle of each day for 10 consecutive days. All rats were exposed twice to each of 5 different stressors, which included a 30-min restraint, a 1-h shaking/crowding, 10-min cold water (18° C.) swim, a 15-min warm water swim (25° C.) and a 24-h tipped cage. […]
Social interaction test: The social interaction test was performed 24 h after the last social defeat stress on day 11 of behavioral testing. […] The amount of time spent in a defined interaction zone close to the metal divider was measured using ANYmaze video tracking (Stoelting Co., Wood Dale Ill., USA). […]

[4] abbreviates: third experiment, 2.5 mg/kg i.p. 3 times over 24 h, alone, Dunnett's test vs vehicle.
The mark [5] stands for this setting: third experiment, 4 mg/kg i.p. 3 times over 24 h, alone, Dunnett's test vs vehicle.

Take `Nc1cccc2c(=O)[nH]ccc12` [5-AIQ, 5-aminoisoquinolinone]: the latency to immobility entry in the assay with Male Sprague-Dawley rats [1] (second experiment, 0.3 mg/kg i.p. once daily for 10 days, vs vehicle control group) is listed as “did not significantly differ”. Besides, the immobility time entry with Male Sprague-Dawley rats [1] (second experiment, 0.3 mg/kg i.p. once daily for 10 days, vs vehicle group) was “significantly less time immobile”.

In the case of `CNCCC(Oc1ccc(C(F)(F)F)cc1)c1ccccc1` (centres unmarked) [fluoxetine], the sucrose preference entry with Male Sprague-Dawley rats [2] (10 mg/kg i.p. daily for 10 days, p=0.005) is reported as “significantly higher”. The immobility time entry is “significantly less time immobile” with Male Sprague-Dawley rats [1] (second experiment, 10 mg/kg i.p. injections 23.5, 5 and 1 h before testing, vs vehicle group); “did not significantly affect” in the assay with Male Sprague-Dawley rats [1] (setting [4]). Also, the latency to immobility entry in the assay with Male Sprague-Dawley rats [1] (second experiment, 10 mg/kg i.p. injections 23.5, 5 and 1 h before testing, vs vehicle-treated control rats) is listed as “significantly greater”; in the assay with Male Sprague-Dawley rats [1] (setting [4]), “did not significantly affect”. Further, in the assay on Male Sprague-Dawley rats [3] (10 mg/kg i.p. daily for 10 days, difference vs vehicle-treated rats exposed to stress, appeared greater, p=0.073), the “time spent in the interaction zone” value is “did not reach statistical significance”.

Consider `NC(=O)c1cccc(N)c1` [3-AB, 3-aminobenzamide], for which, in the assay on Male Sprague-Dawley rats [2] (40 mg/kg i.p. daily for 10 days, p=0.024), the sucrose preference entry was “significantly higher”. In addition, the time spent immobile entry with Male Sprague-Dawley rats [1] (preliminary experiment, 40 mg/kg i.p. daily for 10 days, 2 h after injection, vs saline-treated controls, t=2.36, p<0.05) is listed as “significantly decreased”. The latency to immobility result in the assay on Male Sprague-Dawley rats [1] (preliminary experiment, 40 mg/kg i.p. daily for 10 days, 2 h after injection, vs saline-treated controls, t=5.56, p<0.001) is listed as “significant increase”; in the assay with Male Sprague-Dawley rats [1] (second experiment, 0.4 mg/kg i.p. once daily for 10 days, vs vehicle control group) it was “did not significantly differ”; with Male Sprague-Dawley rats [1] (second experiment, 4 mg/kg i.p. once daily for 10 days, vs vehicle control group), “did not significantly differ”; in the assay on Male Sprague-Dawley rats [1] (second experiment, 40 mg/kg i.p. injections 23.5, 5 and 1 h before testing (3-AB×3), vs vehicle control group), “did not significantly differ”; in the assay on Male Sprague-Dawley rats [1] (second experiment, 40 mg/kg i.p. once daily for 10 days, vs vehicle-treated control rats), “significantly greater”; in the assay with Male Sprague-Dawley rats [1] (setting [5]), “did not significantly affect”. Also, the immobility time entry with Male Sprague-Dawley rats [1] (second experiment, 40 mg/kg i.p. injections 23.5, 5 and 1 h before testing (3-AB×3), vs vehicle group) is “significantly less time immobile”; with Male Sprague-Dawley rats [1] (second experiment, 40 mg/kg i.p. once daily for 10 days, vs vehicle group), “significantly less time immobile”; with Male Sprague-Dawley rats [1] (setting [5]) it was “did not significantly affect”. In addition, the “time spent in the interaction zone” value with Male Sprague-Dawley rats [3] (40 mg/kg i.p. daily for 10 days, vs vehicle-treated rats exposed to stressors, p=0.014) is “significantly greater”.
